Measurements published in patent US10183944B2 (Asana Biosciences, LLC, priority 2011, dated 2019).

Assays:
[1] = biological target: Syk (356-635 amino acids) catalytic domain (Homo sapiens (Human), UniProt P43405); assay: Inhibition of enzymatic Syk kinase activity (radiometric); type: biochemical; settings: read-out: IC50 Syk
Method in brief: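 Radiometric filter-binding format: 32P transfer from γ-32P-ATP onto pG4T, scintillation-counted after acid washes of P81 paper. Syk kinase domain (356-635), 0.035–7.5 ng per reaction, was exposed to compound for 30 minutes at room temperature before a 10-minute, 30° C. reaction with ATP (100 μM stock). Inhibition derived from counts with versus without compound.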

JAK2 = JAK2 (Homo sapiens (Human), UniProt O60674); assay: Inhibition of enzymatic JAK2 kinase activity (TR-FRET); type: biochemical; settings: read-out: IC50 JAK
JAK2, sequence (O60674 808-1132): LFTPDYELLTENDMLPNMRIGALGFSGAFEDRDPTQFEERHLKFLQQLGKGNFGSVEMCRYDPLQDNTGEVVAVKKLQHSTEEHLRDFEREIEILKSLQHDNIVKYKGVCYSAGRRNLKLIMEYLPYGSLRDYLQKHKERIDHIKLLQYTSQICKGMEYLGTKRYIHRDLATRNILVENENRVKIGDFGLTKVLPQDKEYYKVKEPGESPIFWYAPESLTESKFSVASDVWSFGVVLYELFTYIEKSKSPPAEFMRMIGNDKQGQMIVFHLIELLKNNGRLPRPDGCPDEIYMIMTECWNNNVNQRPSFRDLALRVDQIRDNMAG
From the text: The objective of this assay was to screen compounds in a Time-resolved fluorescence resonance energy transfer (TR-FRET) Enzymatic assay method for their potential to inhibit JAK2 (Janus kinase) activity.
TR-FRET assays are homogeneous proximity assays where Eu-labeled antiphosphotyrosine antibody binds to the phosphorylated substrates labeled with Ulight fluorescence acceptor. Eu can transfer energy to Ulight accepter in the complex and the interaction of two dye-labeled binding partners is detected by the energy transfer between a donor and an acceptor dye, and the subsequent light emission by the acceptor dye. The intensity of the light emission is proportional to the level of Ulight peptide phosphorylation.
Two μL of 10% DMSO in blank, substrate control and positive control wells and 2 μL of test compound in test wells was added. Thirteen μL of assay buffer in blank and substrate control wells and 13 μL of Enzyme buffer mix in positive and test wells was added. The reaction mixture was incubated for 30 minutes at RT on a plate shaker. Ultra Light-pGT substrate (5 μL) [poly Glu-Tyr (4:1) labeled with U Light TM dye, a tyrosine kinase substrate] and ATP mix was added to all wells. The reaction plate was incubated for 60 minutes at RT on a plate shaker. The reaction was stopped by adding 40 mM EDTA (10 μL) in buffer. Ten μL of antibody was added to all the wells. The plate was read in a Wallac® 1420 Multilabel Counter Victor 3 instrument (Ex: 340 nm Em: 615 & 665 nm) The following calculations were made:
F@ 665 Value-Buffer blank
F@ 615 Value-Buffer blank
Ratio of F@665/F@615-Substrate Blank
% Activity=(Test Sample/Positive control)*100%
Inhibition=(100−% Activity)

Row | Compound | IC50 [1] [nM] | IC50 (JAK2) [nM]
1 | CN1CCN(Cc2ccc(Nc3nc(N4CCCCCC4)nc4cn[nH]c(=O)c34)cc2)CC1 [Example 85, 2-(azepan-1-yl)-4-((4-((4-methylpiperazin-1-yl)methyl)phenyl)amino)pyrimido[4,5-d]pyridazin-5(6H)-one] | < 50 | < 10
2 | O=C(O)CN1CCC(c2ccc(Nc3nc(-c4ccccc4)nc4cn[nH]c(=O)c34)cc2)CC1 [Example 86, 2-(4-(4-((5-oxo-2-phenyl-5,6-dihydropyrimido[4,5-d]pyridazin-4-yl)amino)phenyl)piperidin-1-yl)acetic acid] | < 50 | < 50
3 | O=C(O)CC1CCC(c2ccc(Nc3nc(-c4ccccc4)nc4cn[nH]c(=O)c34)cc2)CC1 (stereo not shown) [Example 87, 2-(4-(4-((5-oxo-2-phenyl-5,6-dihydropyrimido[4,5-d]pyridazin-4-yl)amino)phenyl)cyclohexyl)acetic acid] | < 50 | < 100
4 | CC(C)(C#N)C1CCN(c2nc(Nc3ccc(N4CCC(CC(=O)O)CC4)cc3)c3c(=O)[nH]ncc3n2)CC1 [Example 100, 2-(1-(4-((2-(4-(2-cyanopropan-2-yl)piperidin-1-yl)-5-oxo-5,6-dihydropyrimido[4,5-d]pyridazin-4-yl)amino)phenyl)piperidin-4-yl)acetic acid] | < 50 | < 50
5 | N#CCC1CCN(c2ccc(Nc3nc(-c4ccccc4)nc4cn[nH]c(=O)c34)cn2)CC1 [Example 101, 2-(1-(5-((5-oxo-2-phenyl-5,6-dihydropyrimido[4,5-d]pyridazin-4-yl)amino)pyridin-2-yl)piperidin-4-yl) acetonitrile] | > 100 | > 100
6 | NC(=O)CC1CCN(c2ccc(Nc3nc(-c4ccccc4)nc4cn[nH]c(=O)c34)cn2)CC1 [Example 102, 2-(1-(5-((5-oxo-2-phenyl-5,6-dihydropyrimido[4,5-d]pyridazin-4-yl)amino)pyridin-2-yl)piperidin-4-yl) acetamide] | < 50 | > 100
7 | NC(=O)CC1CCN(c2ccc(Nc3nc(N4CCCCCC4)nc4cn[nH]c(=O)c34)cc2)CC1 [Example 105, 2-(1-(4-((2-(azepan-1-yl)-5-oxo-5,6-dihydropyrimido[4,5-d]pyridazin-4-yl)amino)phenyl)piperidin-4-yl)acetamide] | < 10 | < 10
8 | O=C(O)CN1CCN(CCOc2ccc(Nc3nc(N4CCCCCC4)nc4cn[nH]c(=O)c34)cc2)CC1 [Example 106, 2-(4-(2-(4-((2-(azepan-1-yl)-5-oxo-5,6-dihydropyrimido[4,5-d]pyridazin-4-yl)amino)phenoxy)ethyl)piperazin-1-yl) acetic acid] | < 50 | < 50
9 | O=C(CC1CCN(c2ccc(Nc3nc(N4CCCCCC4)nc4cn[nH]c(=O)c34)cc2)CC1)NCCO [Example 109, 2-(1-(4-((2-(azepan-1-yl)-5-oxo-5,6-dihydropyrimido[4,5-d]pyridazin-4-yl)amino)phenyl)piperidin-4-yl)-N-(2-hydroxyethyl)acetamide] | < 10 | < 10
10 | O=c1[nH]ncc2nc(N3CCCCCC3)nc(Nc3ccc(OC[C@@H]4CO[C@@H](CO)CO4)cc3)c12 [Example 110, 2-(azepan-1-yl)-4-((4-(((2S,5S)-5-(hydroxymethyl)-1,4-dioxan-2-yl)methoxy)phenyl)amino)pyrimido[4,5-d]pyridazin-5(6H)-one] | < 10 | < 50
11 | N#CCC1CCN(c2ccc(Nc3nc(N4CCCCCC4)nc4cn[nH]c(=O)c34)cc2)CC1 [Example 113, 2-(1-(4-((2-(azepan-1-yl)-5-oxo-5,6-dihydropyrimido[4,5-d]pyridazin-4-yl)amino)phenyl)piperidin-4-yl)acetonitrile] | > 100 | < 10
12 | N#CCC1CCN(c2ccc(Nc3nc(N4CCC(CC#N)CC4)nc4cn[nH]c(=O)c34)cn2)CC1 [Example 114, 2-(1-(5-((2-(4-(cyanomethyl)piperidin-1-yl)-5-oxo-5,6-dihydropyrimido[4,5-d]pyridazin-4-yl)amino)pyridin-2-yl)piperidin-4-yl)acetonitrile] | < 10 | < 50
13 | CC(C)(O)C(=O)N1CCN(CCOc2ccc(Nc3nc(N4CCCCCC4)nc4cn[nH]c(=O)c34)cc2)CC1 [Example 115, 2-(azepan-1-yl)-4-((4-(2-(4-(2-hydroxy-2-methylpropanoyl)piperazin-1-yl)ethoxy)phenyl)amino)pyrimido[4,5-d]pyridazin-5(6H)-one] | < 50 | < 50
14 | O=C(O)[C@H]1CO[C@H](COc2ccc(Nc3nc(N4CCCCCC4)nc4cn[nH]c(=O)c34)cc2)CO1 [Example 124, (2R,5S)-5-((4-((2-(azepan-1-yl)-5-oxo-5,6-dihydropyrimido[4,5-d]pyridazin-4-yl)amino)phenoxy)methyl)-1,4-dioxane-2-carboxylic acid] | < 10 | < 10
15 | O=C(O)CC1CCN(CCCOc2ccc(Nc3nc(N4CCCCCC4)nc4cn[nH]c(=O)c34)cc2)CC1 [Example 126, 2-(1-(3-(4-((2-(azepan-1-yl)-5-oxo-5,6-dihydropyrimido[4,5-d]pyridazin-4-yl)amino)phenoxy)propyl)piperidin-4-yl) acetic acid] | < 100 | < 50
16 | O=C(O)C[C@H]1CC[C@H](c2ccc(Nc3nc(N4CCCCCC4)nc4cn[nH]c(=O)c34)cc2)CC1 [Example 129, 2-((1R,4R)-4-(4-((2-(azepan-1-yl)-5-oxo-5,6-dihydropyrimido[4,5-d]pyridazin-4-yl)amino)phenyl)cyclohexyl)acetic acid] | < 10 | < 10
17 | O=C(O)CCC1CCN(c2ccc(Nc3nc(N4CCCCCC4)nc4cn[nH]c(=O)c34)cc2)CC1 [Example 130, 3-(1-(4-((2-(azepan-1-yl)-5-oxo-5,6-dihydropyrimido[4,5-d]pyridazin-4-yl)amino)phenyl)piperidin-4-yl)propanoic acid] | < 10 | < 10
18 | O=C(O)C1CC12CCN(c1ccc(Nc3nc(N4CCCCCC4)nc4cn[nH]c(=O)c34)cn1)CC2 (stereo not shown) [Example 134] | < 50 | < 10
19 | O=C(O)C1CC12CCN(c1ccc(Nc3nc(N4CCCCCC4)nc4cn[nH]c(=O)c34)cc1F)CC2 (stereo not shown) [Example 135, 6-(4-((2-(azepan-1-yl)-5-oxo-5,6-dihydropyrimido[4,5-d]pyridazin-4-yl)amino)-2-fluorophenyl)-6-azaspiro[2.5]octane-1-carboxylic acid] | < 10 | < 10
20 | O=c1[nH]ncc2nc(N3CCCCCC3)nc(Nc3ccc(OCCCN4CCNCC4)cc3)c12 [Example 136, 2-(azepan-1-yl)-4-((4-(3-(piperazin-1-yl)propoxy)phenyl)amino)pyrimido[4,5-d]pyridazin-5(6H)-one] | < 50 | < 50
21 | CC(C)(O)C1CCN(c2ccc(Nc3nc(N4CCCCCC4)nc4cn[nH]c(=O)c34)cc2)CC1 [Example 139, 2-(azepan-1-yl)-4-((4-(4-(2-hydroxypropan-2-yl)piperidin-1-yl)phenyl)amino)pyrimido[4,5-d]pyridazin-5(6H)-one] | < 50 | < 10
22 | CC(C)(C(=O)O)N1CCN(c2ccc(Nc3nc(N4CCCCCC4)nc4cn[nH]c(=O)c34)cc2)CC1 [Example 140, 2-(4-(4-((2-(azepan-1-yl)-5-oxo-5,6-dihydropyrimido[4,5-d]pyridazin-4-yl)amino)phenyl)piperazin-1-yl)-2-methylpropanoic acid] | < 10 | < 10
23 | O=C(O)C1CC12CCN(c1ccc(Nc3nc(N4CCCCCCC4)nc4cn[nH]c(=O)c34)cc1)CC2 (stereo not shown) [Example 141, 6-(4-((2-(azocan-1-yl)-5-oxo-5,6-dihydropyrimido[4,5-d]pyridazin-4-yl)amino)phenyl)-6-azaspiro[2.5]octane-1-carboxylic acid] | < 50 | < 10
24 | CC(C)(C(=O)O)C1CCN(c2ccc(Nc3nc(N4CCCCCC4)nc4cn[nH]c(=O)c34)cc2)CC1 [Example 142, 2-(1-(4-((2-(azepan-1-yl)-5-oxo-5,6-dihydropyrimido[4,5-d]pyridazin-4-yl)amino)phenyl)piperidin-4-yl)-2-methylpropanoic acid] | < 50 | < 10
25 | CC(C)(C(=O)O)C1CCN(c2ccc(Nc3nc(-c4ccccc4)nc4cn[nH]c(=O)c34)cc2)CC1 [Example 143, 2-methyl-2-(1-(4-((5-oxo-2-phenyl-5,6-dihydropyrimido[4,5-d]pyridazin-4-yl)amino)phenyl)piperidin-4-yl)propanoic acid] | < 50 | > 100
26 | O=C(O)CN1CCN(c2ccc(Nc3nc(N4CCCCCC4)nc4cn[nH]c(=O)c34)cn2)CC1 [Example 144, 2-(4-(5-((2-(azepan-1-yl)-5-oxo-5,6-dihydropyrimido[4,5-d]pyridazin-4-yl)amino)pyridin-2-yl)piperazin-1-yl)acetic acid] | < 100 | < 100
